In patent US4346075A, “Antibiotic DC-11 and process for production thereof” (Kyowa Hakko Kogyo Co., Ltd., priority 1980, dated 1982):
Values after ≈ are worked out from the molar mass of the structure shown.

Columns and labels:
[1] = system: Sarcoma 180 ascites tumor; test: effect on sarcoma 180 ascites tumor; type: in vivo, male ddY-strain mice; conditions: seven days after implantation
Method: Six male ddY-strain mice having a weight of 20 g are used for each group as test animals; and 5×10^6 cells of Sarcoma 180 ascites tumor are implanted in the animals. After 24 hours following implantation, 0.2 ml phosphate buffered saline (PBS) containing DC-11 in various concentrations is administered intraperitoneally. PBS comprises 0.8 g/dl NaCl, 0.02 g/dl KCl, […] Na2 HPO4, 0.02 g/dl KH2 PO4 (pH 7.2).
For comparison, 0.2 ml PBS solution containing mitomycin C is administered to a group of amimals intraperitoneally at the same time as the test compound.
Seven days after implantation, the average tumor volume (mm^3) and T/C (T: average tumor volume of test compound, C: that of control) are determined.

[2] = system: Lymphocytic leukemia P-388 tumor; test: effect on Lymphocytic leukemia P-388 tumor; type: in vivo, male CDF1 mice; conditions: 24 hours following implantation
Method: Five male CDF1 mice having a weight of about 22 g are used for each group as test animals, and 1×10^6 cells of Lymphocytic leukemia P-388 tumor are implanted intraperitoneally in the test animals. Twenty-fours hours following implantation, 0.2 ml PBS solution containing DC-11 in various concentrations is administered intraperitoneally.
For comparison, 0.2 ml PBS solution containing mitomycin C is administered to a group of test animals intraperitoneally at the same time as the test compound.
The average survival period (ASP: days) and T/C (T: average survival days of the groups administered with test compound, C: average survival days of the control group) after implantation are shown in the following Table 6.

[3] = acute toxicity, intraperitoneal, mice; conditions: mouse, in vivo, ip, intraperitoneally
[4] = solubility; type: physicochemical
[5] = system: Bacillus subtilis No. 10707; test: in vitro antibacterial spectrum, disc method (pH 8.0); type: cell-based; conditions: Bacillus subtilis No. 10707, disc method, read-out: Minimum Inhibitory Concentration (MIC)
From the text: (§1) The in vitro antibacterial spectra of DC-11 determined by the disc method (pH 8.0) is illustrated in the following Table 4.

[6] = system: Escherichia coli ATCC 26; test: as above; type: cell-based; conditions: ATCC26, Escherichia coli ATCC 26, disc method, read-out: Minimum Inhibitory Concentration (MIC)
From the text: as §1

[7] = system: Salmonella typhosa ATCC 9992; test: as above; type: cell-based; conditions: Salmonella enterica, pH 8, read-out: Minimum Inhibitory Concentration (MIC)
From the text: as §1

[8] = system: Shigella sonnei ATCC 9290; test: as above; type: cell-based; conditions: ATCC9290, Shigella sonnei ATCC 9290, disc method, read-out: Minimum Inhibitory Concentration (MIC)
From the text: as §1

[9] = system: Klebsiella pneumoniae ATCC 10031; test: as above; type: cell-based; conditions: ATCC10031, Klebsiella pneumoniae ATCC 10031, disc method, read-out: Minimum Inhibitory Concentration (MIC)
From the text: as §1

[10] = system: Staphylococcus aureus ATCC 6538 P; test: as above; type: cell-based; conditions: ATCC6538, read-out: Minimum Inhibitory Concentration (MIC)
From the text: as §1

## CO[C@@]12[C@H](COC(N)=O)C3=C(C(=O)C(C)=C(N)C3=O)N1C[C@@H]1N[C@@H]12 [Mitomycin C, mitomycin C, reference compound]
[1]; 4.2 mg/Kg i.p.
  T/C (average tumor volume of test compound / control): 0.32
  V: average tumor volume: 450 mm^3
[2]; 4.2 mg/Kg i.p.
  T/C (average survival days, test group / control group): 1.51
  average survival period (ASP): 14.2 days

## COC(=O)NC1C(C)OC(OC2CC=C(C)C3C=CC4C(OC5CC(OC6CCC(OC7CC(O)C(OC8CCC(O)C(C)O8)C(C)O7)C(C)O6)C(OC(C)=O)C(C)O5)C(C)CC(C)C4C3(C)C(=O)C3=C(O)C4(CC(C=O)=CC(O)C4C=C2C)OC3=O)CC1(C)[N+](=O)[O-] (centres unmarked) [DC-11]
[3]
  LD50: 54 mg/kg
[4]; benzene and water
  Solubility: slightly soluble
[4]; ethylether, petroleum ether and n-hexane
  Solubility: insoluble
[4]; methanol, ethanol, butanol, acetone, ethyl acetate and chloroform
  Solubility: soluble
[5]
  MIC: 0.1 µg/mL (≈ 0.0761 µM)
[6]
  MIC: > 100 µg/mL
[7]
  MIC: > 100 µg/mL
[8]
  MIC: > 100 µg/mL
[9]
  MIC: > 100 µg/mL
[10]
  MIC: 20 µg/mL (≈ 15.2 µM)
[1]; 25 mg/Kg i.p.
  T/C (average tumor volume of test compound / control): 0.78
  V: average tumor volume: 1096 mm^3
[1]; 50 mg/Kg i.p.
  T/C (average tumor volume of test compound / control): 0.52
  V: average tumor volume: 730 mm^3
[1]; 70 mg/Kg i.p.
  T/C (average tumor volume of test compound / control): 0.42
  V: average tumor volume: 590 mm^3
[2]; 6.25 mg/Kg i.p.
  T/C (average survival days, test group / control group): 1.20
  average survival period (ASP): 11.2 days
[2]; 12.5 mg/Kg i.p.
  T/C (average survival days, test group / control group): 1.43
  average survival period (ASP): 13.4 days
[2]; 25.0 mg/Kg i.p.
  T/C (average survival days, test group / control group): 1.38
  average survival period (ASP): 13.0 days
